# Results as given in patent US8658604B2, “Template-fixed beta-hairpin peptidomimetics with protease inhibitory activity” (Polyphor Ltd, priority 2005, dated 2014).
# Read-outs that look alike come from different tables or passages of the source. Where a SMILES comes first, the peptide text is derived from it.
# How the values were obtained:
# [1] = target: Urokinase from human urine (Homo sapiens, UniProt P00749); test: Enzymatic assay, urokinase
# [2] = target: Thrombin, from Human Plasma (Homo sapiens, UniProt P00734); test: Enzymatic assay, thrombin
# [3] = target: T1, Elastase from human neutrophils (Homo sapiens, UniProt P08246); test: Enzymatic assay, elastase
# T1 sequence (P08246 30-267): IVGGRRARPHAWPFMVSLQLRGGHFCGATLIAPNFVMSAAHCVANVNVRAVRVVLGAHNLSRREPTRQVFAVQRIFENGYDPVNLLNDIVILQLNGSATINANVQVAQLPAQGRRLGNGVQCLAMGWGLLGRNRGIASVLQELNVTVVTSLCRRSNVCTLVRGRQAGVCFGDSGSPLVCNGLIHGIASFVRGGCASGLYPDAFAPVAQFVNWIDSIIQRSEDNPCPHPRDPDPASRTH
# [4] = system: Tryptase, from human lung; test: Enzymatic assay, tryptase; settings: at 100 μM
# HELA cells (Acc57) = test: Cytotoxicity assay (MTT reduction), HELA cells; format: cell-based; settings: Hela cells
# How it was run: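 HeLa cells were grown for 24 h, then exposed to peptides at 12.5, 25 and 50 μM in triplicate for 48 h at 37 °C. MTT reduction was read at 595 nm and growth % calculated relative to time-zero wells. LC50 interpolated by linear trend at −50% growth, GI50 at 50%.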
# [5] = target: Trypsin, from human pancreas (Homo sapiens, UniProt P07477); test: Enzymatic assay, trypsin; settings: at 100 μM
# [6] = target: Chymotrypsin, from human pancreas (Homo sapiens, UniProt P17538); test: Enzymatic assay, chymotrypsin; settings: at 100 μM
# [7] = system: human red blood cells (hRBC); test: Hemolysis
# [8] = target: Coagulation Factor Xa, from uman plasma (Homo sapiens, UniProt P00742); test: Enzymatic assay, coagulation factor Xa
# Chymase, from human skin = target: T2, Chymase, from human skin (Homo sapiens, UniProt P23946); test: Enzymatic assay, chymase
# T2 sequence (P23946 22-247): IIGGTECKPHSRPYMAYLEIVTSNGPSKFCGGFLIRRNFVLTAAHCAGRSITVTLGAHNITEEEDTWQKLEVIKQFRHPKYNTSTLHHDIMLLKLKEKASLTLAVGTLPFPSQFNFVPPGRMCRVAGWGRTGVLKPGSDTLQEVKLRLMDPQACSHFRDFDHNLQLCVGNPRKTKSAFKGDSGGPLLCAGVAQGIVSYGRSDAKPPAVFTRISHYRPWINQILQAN
# [9] = target: T3, CathepsinG, from human neutrophils (Homo sapiens, UniProt P08311); test: Enzymatic assay, cathepsin G
# T3 sequence (P08311 21-244): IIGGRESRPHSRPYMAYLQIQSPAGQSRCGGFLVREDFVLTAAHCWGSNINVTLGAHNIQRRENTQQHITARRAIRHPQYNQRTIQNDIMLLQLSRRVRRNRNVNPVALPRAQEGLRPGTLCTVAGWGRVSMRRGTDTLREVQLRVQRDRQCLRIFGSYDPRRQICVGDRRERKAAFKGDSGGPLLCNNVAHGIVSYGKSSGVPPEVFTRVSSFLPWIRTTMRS
# Chain of Coagulation Factor Xa, from uman plasma (P00742 235-488 limits assumed): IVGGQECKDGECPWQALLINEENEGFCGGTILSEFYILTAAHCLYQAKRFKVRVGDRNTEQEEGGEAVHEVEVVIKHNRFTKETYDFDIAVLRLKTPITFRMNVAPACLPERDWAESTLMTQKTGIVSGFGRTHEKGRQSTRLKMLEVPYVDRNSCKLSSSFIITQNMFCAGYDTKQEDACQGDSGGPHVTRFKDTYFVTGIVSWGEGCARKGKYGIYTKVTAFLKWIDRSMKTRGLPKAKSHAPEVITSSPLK
# Chain of Coagulation Factor Xa, from uman plasma (P00742 41-179 limits assumed): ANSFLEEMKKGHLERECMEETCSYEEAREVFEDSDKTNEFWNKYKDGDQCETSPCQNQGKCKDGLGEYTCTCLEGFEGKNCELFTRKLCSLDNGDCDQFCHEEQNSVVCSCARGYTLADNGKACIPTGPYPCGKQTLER
# Chain of Chymotrypsin, from human pancreas (P17538 19-263): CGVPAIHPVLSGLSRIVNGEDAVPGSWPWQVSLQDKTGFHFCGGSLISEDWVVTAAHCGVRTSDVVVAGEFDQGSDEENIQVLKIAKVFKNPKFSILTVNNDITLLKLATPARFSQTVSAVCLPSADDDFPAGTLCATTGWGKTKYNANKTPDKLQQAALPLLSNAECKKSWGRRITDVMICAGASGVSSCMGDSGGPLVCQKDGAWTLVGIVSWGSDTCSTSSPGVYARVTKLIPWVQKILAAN
smiles,measurement,setting,value
"CC[C@H](C)[C@@H]1NC(=O)[C@H](C)NC(=O)[C@@H]2CCCN2C(=O)[C@H](CC(=O)O)NC(=O)[C@H](CO)NC(=O)[C@H](CCCCN)NC(=O)[C@H]([C@@H](C)O)NC(=O)[C@@H]2CSSC[C@H](NC1=O)C(=O)N[C@@H](CCCNC(=N)N)C(=O)N1CCC[C@@H]1C(=O)N1CCC[C@H]1C(=O)N[C@@H]([C@@H](C)CC)C(=O)N2 [Ex. 14] (HELM PEPTIDE1{I.C.T.K.S.D.P.A.I.C.R.[dP].P}$PEPTIDE1,PEPTIDE1,2:R3-10:R3|PEPTIDE1,PEPTIDE1,1:R1-13:R2$$$V2.0)",Urokinase at 100 μM %,[1],5.4%
same,Thrombin at 100 μM %,[2],8.7%
same,IC50,[3]; Elastase IC50,> 100 µM
same,Tryptase at 100 μM %,[4],84.2%
same,Cytotoxicity LC50/GI50 Hela cells,HELA cells (Acc57),100 µM
same,Trypsin at 100 μM %,[5],88%
same,Chymotrypsin at 100 μM %,[6],0%
same,Hemolysis at 100 μM %,[7],0%
same,FXa at 100 μM %,[8],6%
same,Chymase at 100 μM %,"Chymase, from human skin",42.3%
same,IC50,[9]; Cathepsin G IC50,52 nM
"CCCC[C@@H]1NC(=O)[C@@H]2CCCN2C(=O)[C@@H]2CCCN2C(=O)[C@H](CC(=O)O)NC(=O)[C@H](CO)NC(=O)[C@H](CCCCN)NC(=O)[C@H]([C@@H](C)O)NC(=O)[C@@H]2CSSC[C@H](NC1=O)C(=O)N[C@@H](CCCNC(=N)N)C(=O)N1CCC[C@@H]1C(=O)N1CCC[C@H]1C(=O)N[C@@H]([C@@H](C)CC)C(=O)N2 [Ex. 19] (HELM PEPTIDE1{I.C.T.K.S.D.P.P.[Nle].C.R.[dP].P}$PEPTIDE1,PEPTIDE1,2:R3-10:R3|PEPTIDE1,PEPTIDE1,1:R1-13:R2$$$V2.0)",Urokinase at 100 μM %,[1],4%
same,Thrombin at 100 μM %,[2],11%
same,IC50,[3]; Elastase IC50,> 100 µM
same,Tryptase at 100 μM %,[4],85.2%
same,Cytotoxicity LC50/GI50 Hela cells,HELA cells (Acc57),100 µM
same,Trypsin at 100 μM %,[5],94.0%
same,Chymotrypsin at 100 μM %,[6],0%
same,Hemolysis at 100 μM %,[7],0%
same,FXa at 100 μM %,[8],32%
same,Chymase at 100 μM %,"Chymase, from human skin",26.9%
same,IC50,[9]; Cathepsin G IC50,41 nM
"CC[C@H](C)[C@@H]1NC(=O)[C@@H]2CCCN2C(=O)[C@@H]2CCCN2C(=O)[C@H](CC(=O)O)NC(=O)[C@H](CO)NC(=O)[C@H](CCCCN)NC(=O)[C@H]([C@@H](C)O)NC(=O)[C@@H]2CSSC[C@H](NC1=O)C(=O)N[C@@H]([C@@H](C)O)C(=O)N1CCC[C@@H]1C(=O)N1CCC[C@H]1C(=O)N[C@@H](C1CCCCC1)C(=O)N2 [Ex. 38] (HELM PEPTIDE1{[O=C([C@@H](N[*:1])C1CCCCC1)[*:2]].C.T.K.S.D.P.P.I.C.T.[dP].P}$PEPTIDE1,PEPTIDE1,2:R3-10:R3|PEPTIDE1,PEPTIDE1,1:R1-13:R2$$$V2.0)",Urokinase at 100 μM %,[1],1%
same,Thrombin at 100 μM %,[2],0%
same,IC50,[3]; Elastase IC50,> 100 µM
same,Tryptase at 100 μM %,[4],11%
same,Cytotoxicity LC50/GI50 Hela cells,HELA cells (Acc57),100 µM
same,Trypsin at 100 μM %,[5],96%
same,Chymotrypsin at 100 μM %,[6],4%
same,Hemolysis at 100 μM %,[7],0%
same,FXa at 100 μM %,[8],0%
same,Chymase at 100 μM %,"Chymase, from human skin",1%
same,IC50,[9]; Cathepsin G IC50,31 nM
"CC[C@H](C)[C@@H]1NC(=O)[C@@H]2CCCN2C(=O)[C@@H]2CCCN2C(=O)[C@H](CC(=O)O)NC(=O)[C@H](CO)NC(=O)[C@H](CCCCN)NC(=O)[C@H]([C@@H](C)O)NC(=O)[C@@H]2CSSC[C@H](NC1=O)C(=O)N[C@@H](CC(=O)O)C(=O)N1CCC[C@@H]1C(=O)N1CCC[C@H]1C(=O)N[C@@H](C1CCCCC1)C(=O)N2 [Ex. 39] (HELM PEPTIDE1{[O=C([C@@H](N[*:1])C1CCCCC1)[*:2]].C.T.K.S.D.P.P.I.C.D.[dP].P}$PEPTIDE1,PEPTIDE1,2:R3-10:R3|PEPTIDE1,PEPTIDE1,1:R1-13:R2$$$V2.0)",Urokinase at 100 μM %,[1],2%
same,Thrombin at 100 μM %,[2],2%
same,IC50,[3]; Elastase IC50,> 100 µM
same,Tryptase at 100 μM %,[4],34%
same,Cytotoxicity LC50/GI50 Hela cells,HELA cells (Acc57),98 µM
same,Trypsin at 100 μM %,[5],94%
same,Chymotrypsin at 100 μM %,[6],7%
same,Hemolysis at 100 μM %,[7],0%
same,FXa at 100 μM %,[8],0%
same,Chymase at 100 μM %,"Chymase, from human skin",0%
same,IC50,[9]; Cathepsin G IC50,38 nM
"CC[C@H](C)[C@@H]1NC(=O)[C@@H]2CCCN2C(=O)[C@@H]2CCCN2C(=O)[C@H](CC(=O)O)NC(=O)[C@H](CO)NC(=O)[C@H](CCCCN)NC(=O)[C@H]([C@@H](C)O)NC(=O)[C@@H]2CSSC[C@H](NC1=O)C(=O)N[C@@H](Cc1ccc(O)cc1)C(=O)N1CCC[C@@H]1C(=O)N1CCC[C@H]1C(=O)N[C@@H](C1CCCCC1)C(=O)N2 [Ex. 40] (HELM PEPTIDE1{[O=C([C@@H](N[*:1])C1CCCCC1)[*:2]].C.T.K.S.D.P.P.I.C.Y.[dP].P}$PEPTIDE1,PEPTIDE1,2:R3-10:R3|PEPTIDE1,PEPTIDE1,1:R1-13:R2$$$V2.0)",Urokinase at 100 μM %,[1],10%
same,Thrombin at 100 μM %,[2],1%
same,IC50,[3]; Elastase IC50,> 44.9 µM
same,Tryptase at 100 μM %,[4],33%
same,Cytotoxicity LC50/GI50 Hela cells,HELA cells (Acc57),97 µM
same,Trypsin at 100 μM %,[5],94%
same,Chymotrypsin at 100 μM %,[6],19%
same,Hemolysis at 100 μM %,[7],0.1%
same,FXa at 100 μM %,[8],3%
same,Chymase at 100 μM %,"Chymase, from human skin",8%
same,IC50,[9]; Cathepsin G IC50,25 nM
"CCCC[C@@H]1NC(=O)[C@@H]2CCCN2C(=O)[C@H]2CCCN2C(=O)[C@H](Cc2ccc(O)cc2)NC(=O)[C@@H]2CSSC[C@H](NC1=O)C(=O)N[C@@H]([C@@H](C)O)C(=O)N[C@@H](CCCCN)C(=O)N[C@@H](CO)C(=O)N[C@@H](CC(=O)O)C(=O)N1CCC[C@H]1C(=O)N1CCC[C@H]1C(=O)N[C@@H]([C@@H](C)CC)C(=O)N2 [Ex. 44] (HELM PEPTIDE1{[Nle].C.T.K.S.D.P.P.I.C.Y.[dP].P}$PEPTIDE1,PEPTIDE1,2:R3-10:R3|PEPTIDE1,PEPTIDE1,1:R1-13:R2$$$V2.0)",Urokinase at 100 μM %,[1],14%
same,Thrombin at 100 μM %,[2],9%
same,IC50,[3]; Elastase IC50,> 10 µM
same,Tryptase at 100 μM %,[4],50%
same,Cytotoxicity LC50/GI50 Hela cells,HELA cells (Acc57),67 µM
same,Trypsin at 100 μM %,[5],100%
same,Chymotrypsin at 100 μM %,[6],24%
same,Hemolysis at 100 μM %,[7],0.1%
same,FXa at 100 μM %,[8],9%
same,Chymase at 100 μM %,"Chymase, from human skin",3%
same,IC50,[9]; Cathepsin G IC50,31 nM
"CC[C@H](C)[C@@H]1NC(=O)[C@@H]2CCCN2C(=O)[C@@H]2CCCN2C(=O)[C@H](CC(=O)O)NC(=O)[C@H](CO)NC(=O)[C@H](CCCCN)NC(=O)[C@H]([C@@H](C)O)NC(=O)[C@@H]2CSSC[C@H](NC1=O)C(=O)N[C@@H](CO)C(=O)N1CCC[C@@H]1C(=O)N[C@@H](CC(=O)O)C(=O)N[C@@H](Cc1ccccc1)C(=O)N2 [Ex. 47] (HELM PEPTIDE1{F.C.T.K.S.D.P.P.I.C.S.[dP].D}$PEPTIDE1,PEPTIDE1,2:R3-10:R3|PEPTIDE1,PEPTIDE1,1:R1-13:R2$$$V2.0)",Urokinase at 100 μM %,[1],6.3%
same,Thrombin at 100 μM %,[2],0%
same,IC50,[3]; Elastase IC50,> 10 µM
same,Tryptase at 100 μM %,[4],0%
same,Cytotoxicity LC50/GI50 Hela cells,HELA cells (Acc57),100 µM
same,Trypsin at 100 μM %,[5],87%
same,Chymotrypsin at 100 μM %,[6],1%
same,Hemolysis at 100 μM %,[7],0%
same,FXa at 100 μM %,[8],9.3%
same,Chymase at 100 μM %,"Chymase, from human skin",8.2%
same,IC50,[9]; Cathepsin G IC50,64 nM
"CC[C@H](C)[C@@H]1NC(=O)[C@H](C)NC(=O)[C@@H]2CCCN2C(=O)[C@H](CC(=O)O)NC(=O)[C@H](CO)NC(=O)[C@H](CCCCN)NC(=O)[C@H]([C@@H](C)O)NC(=O)[C@@H]2CSSC[C@H](NC1=O)C(=O)N[C@@H](CCCNC(=N)N)C(=O)N1CCC[C@@H]1C(=O)N1CCC[C@H]1C(=O)N[C@@H]([C@@H](C)CC)C(=O)N2 [Ex. 52] (HELM PEPTIDE1{I.C.T.K.S.D.P.A.I.C.R.[dP].P}$PEPTIDE1,PEPTIDE1,2:R3-10:R3|PEPTIDE1,PEPTIDE1,1:R1-13:R2$$$V2.0)",Urokinase at 100 μM %,[1],5.4%
same,Thrombin at 100 μM %,[2],8.7%
same,IC50,[3]; read-out: Elastase IC50,> 100 µM
same,Tryptase at 100 μM %,[4],84.2%
same,Cytotoxicity LC50/GI50 Hela cells,HELA cells (Acc57),100 µM
same,Trypsin at 100 μM %,[5],86%
same,Chymotrypsin at 100 μM %,[6],0%
same,Hemolysis at 100 μM %,[7],0%
same,FXa at 100 μM %,[8],6%
same,Chymase at 100 μM %,"Chymase, from human skin",42.3%
same,IC50,[9]; read-out: Cathepsin G IC50,52 nM
